Counter-ions that a name gives are not always drawn. Like-named read-outs stand apart in the source and are kept apart here.
Key:
Msep5-HT7L receptor [1] = molecular target: T1, Msep5-HT7L receptor (Mythimna separata, UniProt A0AAD7YHG5); test: cAMP assay, antagonist block of 5-HT-induced response in HEK293 cells expressing Msep5-HT7L; type: cell-based; settings: against 5 μM 5-HT
Description: (§1) HEK-293 cells were cultured in D-MEM (Gibco BRL, Gaithersburg, MD, USA) supplemented with 10% FBS (Gibco BRL, Gaithersburg, MD, USA) at 37 °C and 5% CO2. Four microgram recombinant plasmids with 10 μL of lipofectamine 2000 (Invitrogen, Carlsbad, CA, USA) were introduced into exponentially growing HEK 293 cells. The 0.8 mg/mL antibiotic G418 (Sigma, St. Louis, MO, USA) was added to the medium to select for cells that were stably expressed the Msep5-HT7 receptors. After fourteen days of G418 selection, three G418-resistant colonies were trypsinized in cloning cylinders and transferred to 12-well plastic plates for expansion.
(§2) Intracellular cAMP concentrations were measured as previously described. Briefly, when cells were cultured for 2 days to the concentration of 1 × 10^6 cells/mL, culture media were removed and the cells were washed two times with cold PBS (pH 7.4), then the cells were preincubated in 450 μL of Dulbecco’s phosphate-buffered solution (DPBS) containing 100 μM phosphodiesterase inhibitor 3-isobutyl-1-methylxanthine (IBMX) for 20 min at room temperature. After the preincubation, 50 μL of DPBS, containing various concentrations of reagents, was added into the stable transfected cells for incubation for 30 min at 37 °C. The cells were washed three times with cold PBS (pH 7.4) and then lysed in 250 μL of cold cell lysis buffer by re-freezing. The cell debris was removed by centrifugation at 600× g for 10 min at 4 °C. The amount of intracellular cAMP extracted from harvested supernatant was determined using an ELISA reagent (R&D Systems, Minneapolis, MN, USA). Each measurement was performed in duplicate, and three independent assays were carried out for each reagent and concentration tested.

Msep5-HT7L receptor [2] = test: as above; type: cell-based; settings: for decrease of 5-HT induced response: 40 μM antagonist (8-fold) with 5 μM 5-HT, range stated for all antagonists and both isoforms; for antagonist potency or efficacy, Msep5-HT7L compared with Msep5-HT7S: inhibition of 5-HT-induced cAMP production, based on 95% fiducial limits
Description: as §1, §2

Msep5-HT7S receptor [3] = molecular target: T2, Msep5-HT7S receptor (Mythimna separata, UniProt A0AAD7YHG5, DEL320-414); test: cAMP assay, antagonist block of 5-HT-induced response in HEK293 cells expressing Msep5-HT7S; type: cell-based; settings: for inhibition at 40 µM: HEK293, read-out: decrease of 5-HT induced response
Description: as §1, §2

Msep5-HT7L receptor [4] = molecular target: T1, Msep5-HT7L receptor; test: cAMP assay, agonist activation of Msep5-HT7L in stably transfected HEK293 cells; type: cell-based; design: Emax: dose or concentration left out as unconfirmed; settings: for effect on intracellular cAMP levels: 10 μM, HEK293 cells expressing Msep5-HT7L; for Emax: HEK293, read-out: activation compared with maximum cAMP stimulation by same concentration of 5-HT
Description: as §1, §2

Msep5-HT7L receptor [5] = test: as above; type: cell-based, Mythimna separata; design: Emax: dose or concentration left out as unconfirmed; settings: ratio of EC50 values
Description: as §1, §2

Msep5-HT7S receptor [6] = molecular target: T2, Msep5-HT7S receptor; test: cell-based; type: cell-based; design: Emax: dose or concentration left out as unconfirmed; settings: for Emax: HEK293, read-out: activation compared with maximum cAMP stimulation by 5-HT; for fold higher agonist potency against Msep5-HT7S than Msep5-HT7L: ratio of EC50 values
Description: as §1, §2

5-HT7 receptor [7] = settings: 5-HT7 receptor from T. castaneum; ref [36]; cited from earlier work
[8] = tested on: larvae of Mythimna separata; design: method as in PMID 20000410; settings: ref [22]; cited from earlier work
5-HT7 receptor [9] = test: literature pharmacology of C. vicina 5-HT7 receptor; settings: 5-HT7 receptor from C. vicina vs the two Msep5-HT7 isoforms
5-HT7 receptor [10] = settings: 5-HT7 receptor from T. castaneum vs the two Msep5-HT7 isoforms
5-HT7 receptor [11] = settings: 5-HT7 receptor from C. vicina; ref [28],[36],[46]; cited from earlier work
5-HT7 receptor [12] = settings: 5-HT7 receptor from A. mellifera; ref [17],[27]; cited from earlier work
5-HT1 receptor = molecular target: 5-HT1 receptor; design: method as in PMID 23741451, PMID 16945110; settings: 5-HT1 receptor from T. castaneum; ref [17],[27]; cited from earlier work
[13] = logIC50 (Mean ± SEM), 5-HT7L, given as negative log value
[14] = IC50, 5-HT7S, against 5 μM 5-HT, HEK-293 cells
[15] = logIC50 (Mean ± SEM), 5-HT7S, against 5 μM 5-HT, given as negative log value
[16] = EC50, 5-HT7L, cAMP production, HEK-293 cells
[17] = logEC50 (Mean ± SEM), 5-HT7L, cAMP production, HEK-293 cells, given as negative log value
[18] = 10 μM, HEK293 cells expressing Msep5-HT7S
[19] = EC50, 5-HT7S, cAMP production, HEK-293 cells
[20] = logEC50 (Mean ± SEM), 5-HT7S, cAMP production, HEK-293 cells, given as negative log value

T1 sequence (A0AAD7YHG5 entry or part of it): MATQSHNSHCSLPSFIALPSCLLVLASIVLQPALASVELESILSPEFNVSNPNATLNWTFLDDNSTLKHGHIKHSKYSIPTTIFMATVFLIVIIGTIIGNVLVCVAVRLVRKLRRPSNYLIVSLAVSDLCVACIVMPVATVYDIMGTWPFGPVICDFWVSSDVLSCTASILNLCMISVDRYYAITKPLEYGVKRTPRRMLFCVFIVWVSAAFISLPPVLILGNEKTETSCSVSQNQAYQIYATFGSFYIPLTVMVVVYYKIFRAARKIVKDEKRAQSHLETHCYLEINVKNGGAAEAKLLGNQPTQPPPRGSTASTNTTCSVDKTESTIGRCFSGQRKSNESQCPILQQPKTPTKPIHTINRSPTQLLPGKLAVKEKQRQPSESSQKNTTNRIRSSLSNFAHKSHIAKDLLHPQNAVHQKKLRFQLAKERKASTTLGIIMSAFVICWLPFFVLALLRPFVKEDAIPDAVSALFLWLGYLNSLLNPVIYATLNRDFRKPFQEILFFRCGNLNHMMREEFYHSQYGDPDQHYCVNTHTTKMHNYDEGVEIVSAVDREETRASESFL
T2 sequence (A0AAD7YHG5 entry or part of it DEL320-414): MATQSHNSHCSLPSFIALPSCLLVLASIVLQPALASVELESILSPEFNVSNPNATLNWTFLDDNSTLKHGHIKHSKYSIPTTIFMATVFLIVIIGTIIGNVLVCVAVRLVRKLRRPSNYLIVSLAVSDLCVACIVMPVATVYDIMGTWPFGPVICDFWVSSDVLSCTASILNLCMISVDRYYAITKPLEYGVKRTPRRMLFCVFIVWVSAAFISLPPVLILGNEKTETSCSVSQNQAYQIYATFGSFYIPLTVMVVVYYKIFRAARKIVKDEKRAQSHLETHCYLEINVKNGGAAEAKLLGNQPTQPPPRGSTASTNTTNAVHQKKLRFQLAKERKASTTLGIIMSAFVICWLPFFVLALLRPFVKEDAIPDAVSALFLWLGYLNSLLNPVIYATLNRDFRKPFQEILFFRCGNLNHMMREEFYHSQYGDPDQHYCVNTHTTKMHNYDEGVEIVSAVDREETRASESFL

Row | Compound | IC50 (Msep5-HT7L receptor [1]; IC50, 5-HT7L, HEK-293 cells) [µM] | IC50 (Msep5-HT7L receptor [1]; [13]) [µM] | decrease of 5-HT induced response (Msep5-HT7L receptor [2]) | antagonist potency or efficacy, Msep5-HT7L compared with Msep5-HT7S (Msep5-HT7L receptor [2]) | inhibition at 40 µM (Msep5-HT7S receptor [3]) [%] | IC50 (Msep5-HT7S receptor [3]; [14]) [µM] | IC50 (Msep5-HT7S receptor [3]; [15]) [µM] | effect on intracellular cAMP levels (Msep5-HT7L receptor [4]) | effect on intracellular cAMP levels (Msep5-HT7S receptor [6]; [18]) | further results
1 | Cc1cccc(S(=O)(=O)N(C)[C@H](C)CCN2CCC(C)CC2)c1 [SB-258719] | 55.3 | 55 | 33–60% | no significant differences | 33 to 60 | 64 | 64.6 | – | – | –
2 | CCCN(CCC)C1CCc2cccc(O)c2C1 (racemic) [8-OH-DPAT, (±)-8-hydroxy-2-(dipropylamino) tetralin hydrobromide] | – | – | – | – | – | – | – | activated | only αm-5-HT significantly increased cAMP levels | EC50 (Msep5-HT7L receptor [4]; [16]): 10.1 µM; Emax (Msep5-HT7L receptor [4]): < 30%; EC50 (Msep5-HT7L receptor [4]; [17]): 10 µM; fold higher agonist potency against Msep5-HT7L than Msep5-HT7S (Msep5-HT7L receptor [5]): 2.4 fold; EC50 (Msep5-HT7S receptor [6]; [19]): 24.8 µM; Emax (Msep5-HT7S receptor [6]): < 30%; EC50 (Msep5-HT7S receptor [6]; [20]): 24.5 µM; efficacy fold lower than 5-HT (5-HT7 receptor [7]): about 2 fold; potency fold lower than 5-HT (5-HT7 receptor [7]): more than 190 fold
3 | NCCc1ccc(O)cc1 [tyramine, tyramine hydrochloride] | – | – | – | – | – | – | – | only 5-HT significantly increased cAMP levels | only 5-HT significantly increased cAMP levels | –
4 | Nc1ccc(CCN2CCN(c3cccc(C(F)(F)F)c3)CC2)cc1 [PAPP, 1-[(4-aminophenyl)ethyl]-4-[3-(trifluoromethyl)phenyl] piperazine] | – | – | – | – | – | – | – | – | – | effect on larvae [8]: inhibit the growth or kill the larvae
5 | COc1ccccc1N1CCN(CCN(C(=O)C2CCCCC2)c2ccccn2)CC1 [WAY-100635] | – | – | 33–60% | higher antagonistic activity | – | – | – | – | – | IC50 (Msep5-HT7L receptor [1]; 5-HT7L, HEK-293 cells, read-out: IC50): 36.1 µM; logIC50 (Mean ± SEM) (Msep5-HT7L receptor [1]; 5-HT7L, given as negative log value): −4.44 ± 0.04; IC50 (Msep5-HT7S receptor [3]; 5-HT7S, against 5 μM 5-HT, HEK-293 cells, read-out: IC50): 70.3 µM; logIC50 (Mean ± SEM) (Msep5-HT7S receptor [3]; 5-HT7S, against 5 μM 5-HT, given as negative log value): −4.15 ± 0.02; IC50 (5-HT7 receptor [7]): 76.8 µM
6 | O=C(c1ccc(F)cc1)C1CCN(CCn2c(=O)[nH]c3ccccc3c2=O)CC1 [Ketanserin] | 46.9 | 46.8 | 33–60% | higher antagonistic activity | 33 to 60 | 84.9 | 85.1 | – | – | fold higher inhibitory potency than against Msep5-HT7L and Msep5-HT7S (5-HT7 receptor [9]): 20- to 50 fold; fold higher inhibitory potency than against Msep5-HT7L and Msep5-HT7S (5-HT7 receptor [10]): 20- to 50 fold; IC50 (5-HT7 receptor [7]): 1.95 µM; IC50 (5-HT7 receptor [11]): 1.5 µM
7 | CC1CCN(CC[C@H]2CCCN2S(=O)(=O)c2cccc(O)c2)CC1 [SB-269970, (R)-3-(2-(2-(4-methylpiperidin-1-yl)ethyl)pyrrolidine-1-sulfonyl) phenol] | 70.4 | 70.8 | 33–60% | no significant differences | 33 to 60 | 67.8 | 67.6 | – | – | antagonistic effect (5-HT7 receptor [12]): poor antagonistic effect; IC50 (5-HT1 receptor): 205 µM
8 | CSc1ccc2c(c1)C(N1CCN(C)CC1)Cc1ccccc1S2 (centres unmarked) [Methiothepin, methiothepin mesylate] | 87.2 | 87.1 | 33–60% | no significant differences | 33 to 60 | 62.9 | 63.1 | – | – | –
9 | NCCc1c[nH]c2ccc(O)cc12 [5-HT, serotonin hydrochloride] | – | – | – | – | – | – | – | significantly increased cAMP levels | significantly increased cAMP levels | –
10 | CC(N)Cc1c[nH]c2ccc(O)cc12.O=C(O)/C=C\C(=O)O (stereo not drawn) [αm-5-HT, α-methylserotonin maleate] | – | – | – | – | – | – | – | activated | significantly increased cAMP levels | logEC50 (Mean ± SEM) (Msep5-HT7L receptor [4]; 5-HT7L, cAMP production, HEK-293 cells, given as negative log value): −4.86 ± 0.04; EC50 (Msep5-HT7L receptor [4]; 5-HT7L, cAMP production, HEK-293 cells, read-out: EC50): 13.9 µM; activation compared with maximum cAMP stimulation by same concentration of 5-HT (Msep5-HT7L receptor [4]; highest concentration 1 mM, Msep5-HT7L): about 69%; activation compared with maximum cAMP stimulation by 5-HT (Msep5-HT7S receptor [6]): about 35%; logEC50 (Mean ± SEM) (Msep5-HT7S receptor [6]; 5-HT7S, cAMP production, HEK-293 cells, given as negative log value): −5.23 ± 0.29; EC50 (Msep5-HT7S receptor [6]; 5-HT7S, cAMP production, HEK-293 cells, read-out: EC50): 5.9 µM; fold higher agonist potency against Msep5-HT7S than Msep5-HT7L (Msep5-HT7S receptor [6]): 2.3 fold; efficacy fold lower than 5-HT (5-HT7 receptor [7]): about 2 fold; potency fold lower than 5-HT (5-HT7 receptor [7]): more than 190 fold
11 | NCC(O)c1ccc(O)cc1 (racemic) [octopamine, (±)-octopamine hydrochloride] | – | – | – | – | – | – | – | only 5-HT significantly increased cAMP levels | only 5-HT significantly increased cAMP levels | –
12 | NCCc1ccc(O)c(O)c1 [dopamine, dopamine hydrochloride] | – | – | – | – | – | – | – | only 5-HT significantly increased cAMP levels | – | effect on intracellular cAMP levels (Msep5-HT7S receptor [6]): only 5-HT significantly increased cAMP levels
13 | COc1ccc2[nH]cc(CCN)c2c1 [5-MT, 5-methoxytryptamine] | – | – | – | – | – | – | – | activated | only αm-5-HT significantly increased cAMP levels | EC50 (Msep5-HT7L receptor [4]; [16]): 20.9 µM; Emax (Msep5-HT7L receptor [4]): ~69%; EC50 (Msep5-HT7L receptor [4]; [17]): 20.9 µM; EC50 (Msep5-HT7S receptor [6]; [19]): 19.4 µM; Emax (Msep5-HT7S receptor [6]): ~35%; EC50 (Msep5-HT7S receptor [6]; [20]): 19.5 µM; fold higher agonist potency against Msep5-HT7S than Msep5-HT7L (Msep5-HT7S receptor [6]): roughly equivalent; efficacy fold lower than 5-HT (5-HT7 receptor [7]): about 2 fold; potency fold lower than 5-HT (5-HT7 receptor [7]): more than 190 fold

Reference: PMC9820646, “Identification and Pharmacological Characterization of Two Serotonin Type 7 Receptor Isoforms from Mythimna separata” (International Journal of Molecular Sciences, 2022)
